Columns and labels:
Assay type in all cases: functional
[1] = organism: Cavia porcellus; test: Agonist activity in guinea pig ileum at a concentration of 1 uM expressed as percent maximal response
[2] = organism: Mus musculus; test: Agonist activity in mouse vas deferens at a concentration of 200 nM expressed as percent maximal response
[3] = organism: Mus musculus; test: Inhibitory activity in mouse vas deferens, n=4
[4] = organism: Cavia porcellus; test: Inhibitory activity in guinea pig longitudinal muscle preparation, n=2; settings: Muscle tissue

CN1CCC23c4c5ccc(O)c4O[C@H]2C=C[C@H](N(CCCl)CCCl)[C@H]3C1C5 (some centres undefined)
Activity [1]: 15% | Activity [2]: 25%

CN1CCC23c4c5ccc(O)c4O[C@H]2C=C[C@H](N=[N+]=[N-])[C@H]3C1C5 (some centres undefined)
IC50 [3]: 46 nM | IC50 [4]: 335 nM
